In patent US5202417A, “60-amino-acid polypeptide” (Takeda Chemical Industries, Ltd., priority 1989, dated 1993):

Key:
[1] = isoelectric point of the purified polypeptide; type: physicochemical
[2] = system: anti-PS2 antibodies; assay: immunoreactivity to anti-PS2 antibodies; type: binding
[3] = system: IgG fraction containing anti-hEGF antibody; assay: enzyme immuno assay (EIA) for human EGF, plate sensitized with IgG fraction containing anti-hEGF antibody; type: binding, rabbit; conditions: culture solutions of MCF7, MKN-45 and KATO-III; different from EGF
Excerpt: In order to examine the relationship between the MCF7 cells thus secreting various growth factors and epidermal growth factor (hereinafter referred to as EGF) which is a kind of growth factor, we established an enzyme immuno assay (hereinafter referred to as EIA) which can assay human EGF, and tried to determine it in the culture solutions of MCF7 and human gastric cancer cells MKN-45 and KATO-III. […] It is conceivable that this substance was detected because another antibody was present in the enzyme immuno assay in addition to an antibody against EGF.
An assay system used for detecting the polypeptide of the present invention was prepared in the following manner.
200 μg/ml of an IgG fraction (purified from rabbit serum) containing anti-hEGF antibody was added to 50 mM of Tris-HCl (pH 8.0), and the mixture was poured to a microplate having 96 wells (Sumitomo Bakelite Co.) in an amount of 100 μl/well. After the reaction was conducted at 37° C. for 3 hours, the solution was discarded. Buffer A was further added thereto and blocking was carried out. […]
A plate was washed once with 200 μl/well of buffer A just prior to the use thereof. […] The resultant product was transferred to a Dynamic™ microfluor (for fluorescent enhancer), and the fluorescence was measured with an immunoreader (365 nm excitation, 415 nm fluorescence measurement). […]

immunoreactive polypeptide: 60-amino-acid polypeptide, N-terminus EAQ, secreted by cancer cells MCF-7, MKN-45 or KATO-III; part of the PS2 precursor protein (EAQTETCTVAPRERQNCGFPGVTPSQCANKGCCFDDTVRGVPWCFYPNTIDVPPEEECEF; UniProt P04155 25-84, looked up)
isoelectric point [1]: 4.3 | immunoreactivity to anti-PS2 antibodies [2]: immunoreactive to anti-PS2 antibodies | immunoreactivity in the EIA [3]: immunoreactive to the EIA
